In US5238930A, “Alkenoic acid compounds for mechanism-based inactivation of dehydropeptidase activity” (Board of Governors of Wayne State University, priority 1992, dated 1993):
Entries after “also recorded” stand apart in the source; their conditions may differ.

T1: porcine dehydropeptidase I (Sus scrofa, UniProt P22412)
T1 construct: Renal dipeptidase from porcine kidney was purified by a slight modification of the literature report; from tissue; host or cells: porcine kidney
T1 sequence (P22412 17-409): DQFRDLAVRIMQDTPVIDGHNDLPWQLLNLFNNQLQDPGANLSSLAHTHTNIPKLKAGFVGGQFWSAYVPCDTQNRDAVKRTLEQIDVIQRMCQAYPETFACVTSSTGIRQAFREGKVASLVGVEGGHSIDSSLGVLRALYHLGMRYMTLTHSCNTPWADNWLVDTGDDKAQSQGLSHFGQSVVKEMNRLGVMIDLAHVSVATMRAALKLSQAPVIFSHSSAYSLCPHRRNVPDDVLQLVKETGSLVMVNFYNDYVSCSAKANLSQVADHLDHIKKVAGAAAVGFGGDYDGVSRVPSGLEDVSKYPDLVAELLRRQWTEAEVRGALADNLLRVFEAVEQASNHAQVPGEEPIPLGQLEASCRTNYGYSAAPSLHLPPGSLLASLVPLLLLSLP

B1: porcine dehydropeptidase I (Sus scrofa) (protein)
chain: T1 sequence (P22412 17-409)
notes: Renal dipeptidase from porcine kidney was purified by a slight modification of the literature report; from tissue; host or cells: porcine kidney

Key:
Assay in all cases: Kinetic analysis of interaction (turnover and inactivation) with porcine renal dipeptidase (dehydropeptidase I)
Type in all cases: biochemical
[1] = target: T1, porcine dehydropeptidase I; conditions: for kinact: read-out: kinact (first-order rate constant for inactivation) (converted); for Ki: renal dipeptidase assay with glycinyldehydrophenylalanine as substrate, read-out: Ki (reversible inhibitor constant for the formation of the EI complex)
Excerpt: (§1) Km is the Michaelis […] for the turnover, and Ki is the reversible inhibitor constant for the formation of the EI complex. The parameters Kcat and Kinact are first-order rate constant for enzymic turnover and inactivation, respectively. The partition ratio is defined as kcat divided by kinact (i.e., kcat/ kinact).
(§2) Renal dipeptidase from porcine kidney was purified by a slight modification of the literature report (Biochem. J. 257, 361 (1989)). The spectrophotometric assay of renal dipeptidase is carried out according to the method of Campbell et al. (Methods Enzymol. 19, 722 (1970)), using glycinyldehydrophenylalanine as substrate. The substrate was synthesized according to the literature report (Synthesis Commun., 234 (1982)).
(§3) The relevant kinetic parameters for interactions of I and III with porcine dehydropeptidase I are given below.

[2] = substrate: C=C(NC(=O)CC#N)C(=O)O; conditions: other: turnover of compound by porcine dehydropeptidase I
Excerpt: as §1, §2, §3

[3] = substrate: C=C(CC(=O)CC#N)C(=O)O; conditions: other: turnover of compound by porcine dehydropeptidase I
Excerpt: as §1, §2, §3

Molecule	inactivation of dehydropeptidase, overall result in words ([1]; conclusion from the kinetic table)	kcat/kinact (partition ratio) ([1]; porcine dehydropeptidase I, kcat divided by kinact)	kinact ([1]; porcine dehydropeptidase I)	Ki ([1]; porcine dehydropeptidase I)	Km [2]	Km [3]
C=C(CC(=O)CC#N)C(=O)O [I, 2-Methnylene-5-Cyano-4-Oxopentanoic Acid]	very effective inactivators; also recorded: somewhat better than the ketonic compound (I)	217 ± 37	0.00252 s⁻¹	38 ± 1 µM	–	–
C=C(NC(=O)CC#N)C(=O)O [III, 2-Cyanoacetamidoacrylic Acid]	–	–	0.00462 s⁻¹	18 ± 6 µM	–	–
B1	–	–	–	–	0.416 mM	10.3 mM
